In patent US20120029054A1, “RNA Interference Mediated Inhibition of GATA Binding Protein 3 (GATA3) Gene Expression Using Short Intefering Nucleic Acid (siNA)” (Merck Sharp & Dohme Corp., priority 2009, published 2012):
[invAb] = inverted abasic unit; m = 2'-O-methyl; r = 2'-OH (RNA); f = 2'-fluoro

What was measured:
[1] = system: GATA3 mRNA; experiment: GATA3 mRNA knock-down (Taqman qRT-PCR) after RNAiMax transfection of human MCF7 cells; screen and IC50 dose response; format: cell-based; details: 10 nM siNA, MCF7 cells, 24 hrs
Method: MCF7 (human; ATCC cat# HTB-22): Cells were cultured at 37° C. in the presence of 5% CO2 and grown in Eagle's Minimum Essential medium with supplemented with fetal bovine serum at a final concentration of 10% and 100 μg/mL of streptomycin and 100 U/mL penicillin.
(§1) Cells were plated in all wells of a tissue-culture treated, 96-well plate at a final count of 5000 cells/well in 100 μL of the appropriate culture media. The cells were cultured for 24 hours after plating at 37° C. in the presence of 5% CO2.
(§2) After 24 hours, complexes containing siNA and RNAiMax were created as follows: A solution of RNAiMax diluted 33-fold in OPTI-MEM was prepared. In parallel, solutions of the siNAs for testing were prepared to a final concentration of 120 nM in OPTI-MEM. After incubation of RNAiMax/OPTI-MEM solution at room temperature for 5 min, an equal volume of the siNA solution and the RNAiMax solution were added together for each of the siNAs.
(§3) This solution was incubated at room temperature for 20 minutes. After incubation, 20 uL of the solution was added to each of the relevant wells. The final concentration of siNA in each well was 10 nM and the final volume of RNAiMax in each well was 0.3 ul.
(§4) The time of incubation with the RNAiMax-siNA complexes was 24 hours and there was no change in media between transfection and harvesting, unless otherwise indicated.
(§5) RNA was extracted from a 96-well plate using the TaqMan® Gene Expression Cells-to-CT™ Kit (Cat#4399002) with a modified protocol. Briefly, a 60 uL (1 plate) or 110 uL (2 plates) of the Lysis Solution with DNase I was dispensed into each well of the Lysis Buffer Plate (twin.tec full skirt plate). The lysis buffer and stop plates were stored at 4° C. until the cells were washed.
(§6) The plate was spun at 1100 rpm for 5 minutes. The culture medium was aspirated and discarded from the wells of the culture plate. The lysis was performed automatically using a BioMek FX instrument and method. After the Biomek method was completed, the lysis plate was incubated for 2 min. at room temperature. The lysis plate can be stored for 2 hours at 4° C., or at −20° C. or −80° C. for two months.
(§7) Each well of the reverse transcription plate required 10 uL of 2× reverse transcriptase Buffer, 1 uL of 20× reverse transcription enzyme and 2 uL of nuclease-free water. The reverse transcription master mix was prepared by mixing 2× reverse transcription buffer, 20× reverse transcription enzyme mix, and nuclease-free water. 13 uL of the reverse transcription master mix was dispensed into each well of the reverse transcription plate (semi-skirted). A separate reverse transcription plate was prepared for each cell plate. The plate was loaded onto a Biomek NX or Biomek FX Dual-96 and the Biomek method was run. The program is programmed to automatically added 7 uL of lysate from the cell lysis procedure described above into each well of the reverse transcription plate. The plate is sealed and spun on a centrifuge (1000 rpm for 30 seconds) to settle the contents to the bottom of the reverse transcription plate. The plate is placed in a thermocycler at 37° C. for 60 min, 95° C. for 5 min, and 4° C. until the plate is removed from the thermocycler. Upon removal, if not used immediately, the plate was frozen at −20° C.
(§8) A series of probes and primers were used to detect the various mRNA transcripts of the genes of β-Actin (human cell line only), and of GATA3 and GAPDH in mouse and human cell lines. All Taqman probes and primers for the experiments here-in described were supplied as pre-validated sets by Applied Biosystems, Inc. (see Table 2).
(§9) The assays were performed on an ABI 7900 instrument, according to the manufacturer's instructions. A TaqMan Gene Expression Master Mix (provided in the Cells-to-CT™, Applied Biosystems, Cat #4399002) was used. The PCR reactions were carried out at 50° C. for 2 min, 95° C. for 20 min followed by 40 cycles at 95° C. for 15 secs and 60° C. for 1 min. […]

[2] = system: GATA3 mRNA; experiment: GATA3 mRNA knock-down (Taqman qRT-PCR) after RNAiMax transfection of mouse RAG cells; format: cell-based; details: 10 nM siNA, 24 hrs, average of 2 experiments
Method: RAG (murine; ATCC cat# CCL-142): Cells were cultured at 37° C. in the presence of 5% CO2 and grown in Eagle's Minimum Essential medium with supplemented with 10% of fetal bovine serum, 100 μg/mL of streptomycin, and 100 U/mL penicillin.
as §1, §2, §3, §4, §5, §6, §7, §8, §9

Substance	% KD Human ([1]; average of 3 experiments)	% KD Mouse [2]	% KD Human ([1]; * Hs00231122_m1 Taqman Assay)	% KD Human ([1]; ** Hs00922328_m1 Taqman Assay)
30271-DC: GATA3 siNA duplex, mouse site 1620: sense B GuAcuAcAAGcuucAuAAu TTB (SEQ 95), antisense AUUAuGAAGcuuGuAGuAcUU (SEQ 96) (sense GUACUACAAGCUUCAUAAUTT; antisense AUUAUGAAGCUUGUAGUACUU; chemistry not fully specified)	10 ± 11%	70 ± 0%	–	–
30246-DC: GATA3 siNA duplex, site 1883: sense B GGGuuAGAGcccuGcucGA TTB (SEQ 45), antisense UCGAGcAGGGcucuAAcccUU (SEQ 46) (sense GGGUUAGAGCCCUGCUCGATT; antisense UCGAGCAGGGCUCUAACCCUU; chemistry not fully specified)	−6 ± 19%	−1 ± 2%	–	–
30272-DC: GATA3 siNA duplex, mouse site 807: sense B GAGGuAuccuccGAcccAc TTB (SEQ 97), antisense GUGGGucGGAGGAuAccucUU (SEQ 98) (sense GAGGUAUCCUCCGACCCACTT; antisense GUGGGUCGGAGGAUACCUCUU; chemistry not fully specified)	–	85 ± 0%	69 ± 3* %	33 ± 19** %
30282-DC: GATA3 siNA duplex, human/mouse site 2587: sense B cAccAAAAuAAGAAAAGAu TTB (SEQ 117), antisense AUCuuuucuuAuuuuGGuGUU (SEQ 118) (sense CACCAAAAUAAGAAAAGAUTT; antisense AUCUUUUCUUAUUUUGGUGUU; sense: DNA at AGT, 2'-fluoro at CU, [invAb] at 5' end, 3' end, backbone not given here; antisense: sugars from the 5' end rrrfffffffmffffmmfmmm, backbone not given here)	46 ± 8%	84 ± 1%	–	–
30266-DC: GATA3 siNA duplex, mouse site 1258: sense B cccuAuGuGcccGAGuAcA TTB (SEQ 85), antisense UGUAcucGGGcAcAuAGGGUU (SEQ 86) (sense CCCUAUGUGCCCGAGUACATT; antisense UGUACUCGGGCACAUAGGGUU; chemistry not fully specified)	−3 ± 5%	8 ± 5%	–	–
30268-DC: GATA3 siNA duplex, mouse site 1533: sense B GAcAuccuGcGcGaacuGu TTB (SEQ 89), antisense ACAGuucGcGcAGGAuGucUU (SEQ 90) (sense GACAUCCUGCGCGAACUGUTT; antisense ACAGUUCGCGCAGGAUGUCUU; chemistry not fully specified)	16 ± 3%	17 ± 2%	–	–
30279-DC: GATA3 siNA duplex, mouse site 1448: sense B ccuGcGGAcucuAccAuAA TTB (SEQ 111), antisense UUAuGGuAGAGuccGcAGGUU (SEQ 112) (sense CCUGCGGACUCUACCAUAATT; antisense UUAUGGUAGAGUCCGCAGGUU; sense: DNA at AGT, 2'-fluoro at CU, [invAb] at 5' end, 3' end, backbone not given here; antisense: sugars from the 5' end rrrfmmfmmmmfffmfmmmmm, backbone not given here)	−27 ± 12%	68 ± 4%	–	–
30252-DC: GATA3 siNA duplex, site 1084: sense B cccGGcAGGAcGAGAAAGA TTB (SEQ 57), antisense UCUuucucGuccuGccGGGUU (SEQ 58) (sense CCCGGCAGGACGAGAAAGATT; antisense UCUUUCUCGUCCUGCCGGGUU; sense: DNA at AGT, 2'-fluoro at C, [invAb] at 5' end, 3' end, backbone not given here; antisense: sugars from the 5' end rrrfffffmffffmffmmmmm, backbone not given here)	−3 ± 2%	0 ± 4%	–	–
30280-DC: GATA3 siNA duplex, mouse site 1106: sense B ccGGGucGGccAGGcAAGA TTB (SEQ 113), antisense UCUuGccuGGccGAcccGGUU (SEQ 114) (sense CCGGGUCGGCCAGGCAAGATT; antisense UCUUGCCUGGCCGACCCGGUU; sense: DNA at AGT, 2'-fluoro at CU, [invAb] at 5' end, 3' end, backbone not given here; antisense: sugars from the 5' end rrrfmfffmmffmmfffmmmm, backbone not given here)	−16 ± 12%	1 ± 2%	–	–
30267-DC: GATA3 siNA duplex, mouse site 1324: sense B GGGuucGGAuGuAAGucGA TTB (SEQ 87), antisense UCGAcuuAcAuccGAAcccUU (SEQ 88) (sense GGGUUCGGAUGUAAGUCGATT; antisense UCGACUUACAUCCGAACCCUU; chemistry not fully specified)	−13 ± 15%	40 ± 1%	–	–
30258-DC: GATA3 siNA duplex, site 990: sense B cAcGccAGcccGcAccucu TTB (SEQ 69), antisense AGAGGuGcGGGcuGGcGuGUU (SEQ 70) (sense CACGCCAGCCCGCACCUCUTT; antisense AGAGGUGCGGGCUGGCGUGUU; chemistry not fully specified)	0 ± 4%	−12 ± 4%	–	–
30259-DC: GATA3 siNA duplex, site 713: sense B cAucGAcGGucAAGGcAAc TTB (SEQ 71), antisense GUUGccuuGAccGucGAuGUU (SEQ 72) (sense CAUCGACGGUCAAGGCAACTT; antisense GUUGCCUUGACCGUCGAUGUU; chemistry not fully specified)	36 ± 2%	60 ± 1%	–	–
30247-DC: GATA3 siNA duplex, site 763: sense B GGGccAcGGuGcAGAGGuA TTB (SEQ 47), antisense UACcucuGcAccGuGGcccUU (SEQ 48) (sense GGGCCACGGUGCAGAGGUATT; antisense UACCUCUGCACCGUGGCCCUU; chemistry not fully specified)	−7 ± 17%	−25 ± 14%	–	–
30253-DC: GATA3 siNA duplex, site 644: sense B GGGccucAGccAcuccuAc TTB (SEQ 59), antisense GUAGGAGuGGcuGAGGcccUU (SEQ 60) (sense GGGCCUCAGCCACUCCUACTT; antisense GUAGGAGUGGCUGAGGCCCUU; chemistry not fully specified)	−1 ± 11%	−6 ± 1%	–	–
30249-DC: GATA3 siNA duplex, site 673: sense B cGcAGuAcccGcuGccGGA TTB (SEQ 51), antisense UCCGGcAGcGGGuAcuGcGUU (SEQ 52) (sense CGCAGUACCCGCUGCCGGATT; antisense UCCGGCAGCGGGUACUGCGUU; sense: DNA at AGT, 2'-fluoro at CU, [invAb] at 5' end, 3' end, backbone not given here; antisense: sugars from the 5' end rrrmmfmmfmmmfmffmfmmm, backbone not given here)	1 ± 19%	−12 ± 2%	–	–
